Series [1] in a line: Micelle formation upon mixing with FeCl3 (brightfield microscopy). The series is classed as physicochemical. The conditions noted are these: 0.2 M in ethanol mixed with 0.2 M FeCl3 in ethanol, 3/1 ratio, reduced to half volume. The text has this:
Micelle formation. […] Also, synthesized pseudan IX, 0.2 M in ethanol, was mixed with 0.2 M FeCl3 in ethanol in a 3/1 ratio. Following reduction to half the volume using a nitrogen bubbler, micelles were observed as above. An Olympus BX-60 microscope and an Optronics DEI 750 camera were used.

The conditions of series [2]: isolated from filtrates of 4 to 6 week old culture of P. aeruginosa; cited from earlier work.

For `CCCCCCCCCc1cc(O)c2ccccc2n1` [pseudan IX, 4-hydroxy-2-nonylquinoline], the “micelle formation with iron” value in series [1] is listed as “Pink micelles, albeit smaller, are also evident”. Further, in series [2], the antibiotic activity result was “shown to exhibit antibiotic activity”.

The values are drawn from patent US20030109548A1, “Compositions and methods of treating iron excess” (priority 2001, published 2003).
